In one test the target is T1, FKBP52 (Homo sapiens, UniProt Q02790).
T1 sequence (Q02790 50-138 limits assumed): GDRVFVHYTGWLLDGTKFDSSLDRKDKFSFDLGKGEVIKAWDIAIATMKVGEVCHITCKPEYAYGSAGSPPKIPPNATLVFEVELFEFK
Description: Fluorescence polarization (FP) assay, binding to the FK506-binding domain of FKBP52. Particulars: FK506-binding domain of FKBP52 (FKBP52FK1), competition with fluorescent ligand 2b. The protocol:
(§1) In the present invention, in vitro fluorescence polarization assays with the compounds of the general formula (I) were performed to determine the binding affinities to FKBP51 and FKBP52 or to the isolated FK506-binding domains of FKBP51 and FKBP52 ([…]). Binding to the isolated FK506-binding domains is reliably indicative of binding to the full length proteins. The affinities for the isolated FK506-binding domains and for full-length FKBP51 or FKBP52 are the same for all compounds tested so far (Kozany et al, ChemBioChem 2009, 10, 1402-1410).
(§2) Example 11: Fluorescence Polarization (FP) Assays
(§3) In-vitro fluorescence polarization assays were performed to determine the binding affinities for FKBP51 and 52 according to a literature procedure (Kozany, C.; Marz, A.; Kress, C.; Hausch, F., Fluorescent probes to characterise FK506-binding proteins. Chembiochem 2009, 10, (8), 1402-10).
(§4) For fluorescence polarization assays the fluorescent ligand 2b was dissolved in HEPES (20 mm, pH 8), Triton-X100 (0.01%), at double the concentration required for the final sample. The target protein was also diluted in this assay buffer at double the highest concentration required for the final sample. This protein stock was used for a 1:1 serial dilution.
(§5) The fluorescent ligand 2b was diluted in assay buffer to a concentration double the final concentration (20 nM 2b). The inventive compound was dissolved in DMSO to reach a 100-times concentrated stock solution. This was used for a 1:1 serial dilution in DMSO. Every sample of this serial dilution was diluted by a factor of 50 in assay buffer supplemented with ligand 2b to achieve a 2× concentrated mixture of ligand 2b and the inventive compound. To this competitive ligand double the protein concentration for 2b assay: FKBP51FK1 560 nM (2×280 nM) or FKBP52FK1 800 nM (2×400 nM) diluted in assay buffer was added.
(§6) The samples were transferred to black 384-well assay plates (No.: 3575; Corning Life Sciences). After incubation at room temperature for 30 min the fluorescence anisotropy was measured (GENios Pro, Tecan, Männedorf, Switzerland) by using an excitation filters of 485/20 nm and emission filters of 535/25 nm. The binding assays were performed in duplicates in the plate format.
(§7) The competition curves were analyzed by using SigmaPlot9. Data were fitted to a four parameter logistic curve to deduce the IC50 values. For the analysis of K1 values, data were fitted to the following equation (Z. X. Wang, FEBS Lett. 1995, 360, 111-114). A=(Amax−Amin)/[L]t×(([L]t×((2×((Klig+Kcomp+[L]t+[I]t−[R]t)^2−3×(Kcomp×([L]t−[R]t)+Klig×([I]t−[R]t)+[…]))^0.5×COS(ARCCOS((−2×(Klig+Kcomp+[L]t+[I]t−[R]t)^3+9×(Klig+Kcomp+[L]t+[I]t−[R]t)×(Kcomp×([L]t−[R]t)+Klig×([I]t−[R]t)+Klig×Kcomp)−27×(−1×Klig×Kcomp×[R]t))/(2×((((Klig+Kcomp+[L]t+[I]t−[R]t)^2−3×(Kcomp×([L]t−[R]t)+Klig×([I]t−[R]t)+Klig×Kcomp))^3)^0.5)))/3))−(Klig+Kcomp+[L]t+[I]t−[R]t)))/((3×Klig)+((2×((Klig+Kcomp+[L]t+[I]t−[R]t)^2−3×(Kcomp×([L]t−[R]t)+Klig×([I]t−[R]t)+Klig×Kcomp))^0.5×COS(ARCCOS((−2×(Klig+Kcomp+[L]t+[I]t−[R]t)^3+9×(Klig+Kcomp+[L]t+[I]t−[R]t)×(Kcomp×([L]t−[R]t)+Klig×([I]t−[R]t)+Klig×Kcomp)−27×(−1×Klig×Kcomp×[R]t))/(2×((((Klig+Kcomp+[L]t+[I]t−[R]t)^2−3×(Kcomp×([L]t−[R]t)+Klig×([I]t−[R]t)+Klig×Kcomp))^3)^0.5)))/3))−(Klig+Kcomp+[L]t+[I]t−[R]t)))+Amin
(§8) In this equation Klig and Kcomp stand for the Kd values of the used tracer or competing inhibitor, [I]t is referring to the total concentration of the titrated inhibitor.
Background: Fluorescence polarisation rises when a labelled molecule tumbles more slowly, as on binding a larger partner.

The target of the next test is T2, FKBP51 (Homo sapiens, UniProt Q13451).
T2 sequence (Q13451 42-130 limits assumed): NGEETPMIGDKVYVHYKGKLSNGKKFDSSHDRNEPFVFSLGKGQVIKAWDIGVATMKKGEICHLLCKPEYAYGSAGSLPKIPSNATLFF
Briefly: Fluorescence polarization (FP) assay, binding to the FK506-binding domain of FKBP51. To be noted: FK506-binding domain of FKBP51 (FKBP51FK1), competition with fluorescent ligand 2b. The method, then:
as §1, §2, §3, §4, §5, §6, §7, §8

Ki data for 18 compounds are collected here from patent US9914732B2, “Diazabicyclo[4.3.1]decane derivatives for treatment of psychiatric disorders” (Max-Planck-Gesellschaft zur Forderung der Wissenschaften …, priority 2014, dated 2018).

On to `C=CC1CN(CCNC)C(=O)C2CCCC1N2S(=O)(=O)c1cc(Cl)cc(Cl)c1` (stereo in doubt) [Compound J19, (1S,5R,6R)-10-((3,5-dichlorophenyl)sulfonyl)-3-(2-(methylamino)ethyl)-5-vinyl-3,10-diazabicyclo[4.3.1]decan-2-one], for which the Ki at FKBP52 and on FKBP51 was 100 to 500 nM each time.

With `C=CC1CN(Cc2ccccn2)C(=O)C2CCCC1N2S(=O)(=O)c1cccc(Br)c1` (stereo in doubt) [Compound K5, (1S,5R,6R)-10-((3-bromophenyl)sulfonyl)-3-(pyridin-2-ylmethyl)-5-vinyl-3,10-diazabicyclo[4.3.1]decan-2-one], the inhibitory constant (Ki) at FKBP52 and at FKBP51 was no more than 100 nM each time.

As for `C=CC1CN(Cc2ccccn2)C(=O)C2CCCC1N2S(=O)(=O)c1ccc2nc(C)sc2c1` (stereo in doubt) [Compound K6, (1S,5R,6R)-10-((2-methylbenzo[d]thiazol-6-yl)sulfonyl)-3-(pyridin-2-ylmethyl)-5-vinyl-3,10-diazabicyclo[4.3.1]decan-2-one], the inhibition constant Ki on FKBP52 and on FKBP51 was no more than 100 nM in each case.

With `C=CC1CN(Cc2ccccn2)C(=O)C2CCCC1N2S(=O)(=O)c1ccc2ncsc2c1` (stereo in doubt) [Compound K9, (1S,5R,6R)-10-(benzo[d]thiazol-6-ylsulfonyl)-3-(pyridin-2-ylmethyl)-5-vinyl-3,10-diazabicyclo[4.3.1]decan-2-one], the Ki at FKBP52 and at FKBP51 was 100 to 500 nM throughout.

Regarding `C=CC1CN(Cc2ccccn2)C(=O)C2CCCC1N2S(=O)(=O)c1ccc(OC)c(Cl)c1` (stereo in doubt) [Compound K10, (1S,5R,6R)-10-((3-chloro-4-methoxyphenyl)sulfonyl)-3-(pyridin-2-ylmethyl)-5-vinyl-3,10-diazabicyclo[4.3.1]decan-2-one], the Ki on FKBP52 and at FKBP51 was 100 to 500 nM in each case.

As to `C=CC1CN(Cc2ccccn2)C(=O)C2CCCC1N2S(=O)(=O)c1cccc(Cl)c1` (stereo in doubt) [Compound K11, (1S,5R,6R)-10-((3-chlorophenyl)sulfonyl)-3-(pyridin-2-ylmethyl)-5-vinyl-3,10-diazabicyclo[4.3.1]decan-2-one], the inhibition constant (Ki) at FKBP52 and at FKBP51 was 100 to 500 nM throughout.

For `C=CC1CN(Cc2ccccn2)C(=O)C2CCCC1N2S(=O)(=O)c1ccc2c(c1)CCO2` (stereo in doubt) [Compound K12, (1S,5R,6R)-10-((2,3-dihydrobenzofuran-5-yl)sulfonyl)-3-(pyridin-2-ylmethyl)-5-vinyl-3,10-diazabicyclo[4.3.1]decan-2-one], the inhibition constant (Ki) on FKBP52 and at FKBP51 was 500 to 1000 nM throughout.

Regarding `C=CC1CN(Cc2ccccn2)C(=O)C2CCCC1N2S(=O)(=O)c1ccccc1` (stereo in doubt) [Compound K13, (1S,5R,6R)-10-(phenylsulfonyl)-3-(pyridin-2-ylmethyl)-5-vinyl-3,10-diazabicyclo[4.3.1]decan-2-one], the inhibitory constant (Ki) at FKBP52 and on FKBP51 was 500 to 1000 nM in each case.

With `C=CC1CN(Cc2ccccn2)C(=O)C2CCCC1N2S(=O)(=O)c1cccc(F)c1` (stereo in doubt) [Compound K15, (1S,5R,6R)-10-((3-fluorophenyl)sulfonyl)-3-(pyridin-2-ylmethyl)-5-vinyl-3,10-diazabicyclo[4.3.1]decan-2-one], the Ki on FKBP52 and on FKBP51 was 100 to 500 nM in each case.

On to `C=CC1CN(Cc2ccccn2)C(=O)C2CCCC1N2S(=O)(=O)c1cc(Br)cc(Br)c1` (stereo in doubt) [Compound K16, (1S,5R,6R)-10-((3,5-dibromophenyl)sulfonyl)-3-(pyridin-2-ylmethyl)-5-vinyl-3,10-diazabicyclo[4.3.1]decan-2-one], for which the Ki at FKBP52 and at FKBP51 was no more than 100 nM each time.

Regarding `C=CC1CN(Cc2ccccn2)C(=O)C2CCCC1N2S(=O)(=O)c1cccc(C(N)=O)c1` (stereo in doubt) [Compound K17, 3-(((1S,5R,6R)-2-oxo-3-(pyridin-2-ylmethyl)-5-vinyl-3,10-diazabicyclo[4.3.1]decan-10-yl)sulfonyl)benzamide], the Ki on FKBP52 and at FKBP51 was 100 to 500 nM in each case.

As for `C=CC1CN(Cc2ccccn2)C(=O)C2CCCC1N2S(=O)(=O)c1ccc(NC(C)=O)c(Br)c1` (stereo in doubt) [Compound K20, N-(2-bromo-4-(((1S,5R,6R)-2-oxo-3-(pyridin-2-ylmethyl)-5-vinyl-3,10-diazabicyclo[4.3.1]decan-10-yl)sulfonyl)phenyl)acetamide], the Ki at FKBP52 and at FKBP51 was 100 to 500 nM each time.

`C=CC1CN(Cc2ccccn2)C(=O)C2CCCC1N2S(=O)(=O)c1ccc(NC(C)=O)c(Cl)c1` (stereo in doubt) [Compound K21, N-(2-chloro-4-(((1S,5R,6R)-2-oxo-3-(pyridin-2-ylmethyl)-5-vinyl-3,10-diazabicyclo[4.3.1]decan-10-yl)sulfonyl)phenyl)acetamide]: the Ki on FKBP52 and at FKBP51 was 100 to 500 nM each time.

For the compound `C=CC1CN(Cc2ccccn2)C(=O)C2CCCC1N2S(=O)(=O)c1cc(Br)cc(C(=O)OC)c1` (stereo in doubt) [Compound K24, methyl 3-bromo-5-(((1S,5R,6R)-2-oxo-3-(pyridin-2-ylmethyl)-5-vinyl-3,10-diazabicyclo[4.3.1]decan-10-yl)sulfonyl)benzoate], the Ki on FKBP52 and at FKBP51 was no more than 100 nM in each case.

Turning to `C=CC1CN(Cc2ccccn2)C(=O)C2CCCC1N2S(=O)(=O)c1cccnc1` (stereo in doubt) [Compound K26, (1S,5R,6R)-3-(pyridin-2-ylmethyl)-10-(pyridin-3-ylsulfonyl)-5-vinyl-3,10-diazabicyclo[4.3.1]decan-2-one], the Ki on FKBP52 and on FKBP51 was 100 to 500 nM each time.

Consider `C=CC1CN(Cc2ccccn2)C(=O)C2CCCC1N2S(=O)(=O)c1ccc(-c2ncccn2)cc1` (stereo in doubt) [Compound K28, (1S,5R,6R)-3-(pyridin-2-ylmethyl)-10-((4-(pyrimidin-2-yl)phenyl)sulfonyl)-5-vinyl-3,10-diazabicyclo[4.3.1]decan-2-one], for which the Ki on FKBP52 and at FKBP51 was no more than 100 nM in each case.

As for `C=CC1CN(Cc2ccccn2)C(=O)C2CCCC1N2S(=O)(=O)c1nc2ccccc2[nH]1` (stereo in doubt) [Compound K29, (1S,5R,6R)-10-((1H-benzo[d]imidazol-2-yl)sulfonyl)-3-(pyridin-2-ylmethyl)-5-vinyl-3,10-diazabicyclo[4.3.1]decan-2-one], the Ki on FKBP52 and on FKBP51 was no more than 100 nM each time.

For `CCC1CN(Cc2ccccn2)C(=O)C2CCCC1N2S(=O)(=O)c1cc(Cl)cc(Cl)c1` (stereo in doubt) [Compound M1, (1S,5R,6R)-10-((3,5-dichlorophenyl)sulfonyl)-5-ethyl-3-(pyridin-2-ylmethyl)-3,10-diazabicyclo[4.3.1]decan-2-one], the Ki at FKBP52 and at FKBP51 was no more than 100 nM each time.
